According to patent US20240148672A1, “ORAL THIN FILM” (LTS LOHMANN THERAPIE-SYSTEME AG, priority 2021, published 2024):
Structures can show the parent of a compound that is named as a salt.

Key:
[1] = (S)-ketamine versus (R) form; cited from earlier work
[2] = pH value of oral thin film dissolved in demineralised water; format: physicochemical; conditions: Measured as dissolved OTF in demineralised water temperature-controlled to 32° C. (blank value pH 7.12)
Procedure: Oral thin films of the composition according to Table 1 were prepared as follows. The active ingredient or the active ingredient mixture was presented and an aqueous solution of the matrix polymer was added. The remaining ingredients were then stirred in. The solution was spread and dried in order to obtain an oral thin film.

For `CNC1(c2ccccc2Cl)CCCCC1=O` (racemic) [(S)-ketamine, (S)-(±)-2-(2-chlorophenyl)-2-(methylamino)cyclohexan-1-one], the “analgesic and anaesthetic potency relative to the (R) form” value [1] is listed as “approximately three times higher”.

In the case of `CNC1(c2ccccc2Cl)CCCCC1=O` (centres unmarked) [ketamine hydrochloride], the pH-value [2] is reported as 5.32.
